Experimental data reported in patent US20090111860A1, “SULFONAMIDE COMPOUNDS USEFUL AS ADG RECEPTOR MODULATORS” (ASTRAZENECA AB, priority 2006, published 2009).

Target: T1, EDG-1/S1P1 receptor (Homo sapiens, UniProt P21453)
T1 construct: expressed in transfected cells; host or cells: human osteogenic sarcoma U2OS cells (EDG-1 Transfluor U2OS WT Clone #37)
Experiment: In vitro cell based receptor activation assay - Transfluor assay
Details: EDG-1 Transfluor U2OS WT Clone #37 cells; beta-arrestin GFP relocalization; 375 nM or 750 nM S1P ligand
Excerpt: A. In Vitro Cell Based Receptor Activation Assay-Transfluor Assay
This cell-based assay was designed to assess the ability of small molecule antagonists to inhibit activation of the GPCR S1P1 in the presence of its cognate ligand S1P. The assay used technology initially developed by Norak Biosciences (Xsira Pharmaceutical) and presently owned by Molecular Devices. A human osteogenic sarcoma (U2OS) cell line overexpressing the EDG-1/S1P1) receptor as well as a beta-arrestin/green fluorescent protein (GFP) construct hereafter termed EDG-1 Transfluor U2OS WT Clone #37 was employed.
Using a high content screening approach (Cellomics Arrayscan), receptor activity was measured by assessment of the relocalization of beta-arrestin GFP in response to stimulation of EDG-1 by S1P. Specifically, EDG-1 Transfluor U2OS WT Clone #37 cells were plated at a density of 6250 cells in 40 uL medium per well in 384 well plastic bottomed microtiter plates (BD Falcon) and incubated overnight at 37° C./5% CO2. Prior to screening, compounds were dissolved in 100% dimethyl sulfoxide (DMSO) to a final stock concentration of 10 mM. […] Plates were then sealed and analysed on the Cellomics Arrayscan using the GPCR signalling algorithm. EC50 values were then calculated using IDBS ActivityBase software.

T1 sequence (P21453 whole entry): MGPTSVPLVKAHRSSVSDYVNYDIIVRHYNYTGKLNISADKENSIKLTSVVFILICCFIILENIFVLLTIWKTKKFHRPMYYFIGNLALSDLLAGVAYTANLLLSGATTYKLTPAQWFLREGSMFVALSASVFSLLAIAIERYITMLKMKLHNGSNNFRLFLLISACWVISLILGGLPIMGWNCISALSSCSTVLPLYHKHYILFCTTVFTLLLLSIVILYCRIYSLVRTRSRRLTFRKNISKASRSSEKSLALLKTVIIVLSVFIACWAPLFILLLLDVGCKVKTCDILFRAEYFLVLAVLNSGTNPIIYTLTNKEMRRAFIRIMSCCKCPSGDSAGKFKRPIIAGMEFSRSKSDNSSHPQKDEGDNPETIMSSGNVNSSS

How did the EC50 turn out when `CCc1c(C(C)NS(=O)(=O)c2ccc(Cl)cc2)n[nH]c1C` (stereo not shown) [Example 1] was run?
The EC50 was 680 nM.
